Test results as given in patent US20240270762A1, “PENICILLIN-BINDING PROTEIN INHIBITORS” (priority 2021, published 2024).
Values after ≈ are worked out from the molar mass of the structure shown.

Legend:
[1] = biological target: T1, PBP3 from Escherichia coli (K-12) (Escherichia coli, UniProt P0AD68); assay: Bocillin-FL fluorescence polarization competition binding, E. coli PBP3
T1 construct: made in house
How it was run: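 Purified PBPs pre-incubated with inhibitor (E. coli PBP3 1.5 μM, 30 min; P. aeruginosa PBP3 0.75 μM, A. baumannii PBP1a 1 μM and PBP3 0.2 μM, 15 min), then Bocillin-FL 0.1 μM (0.05 μM for PBP1a) added; FP read up to 60 min. EC50 = concentration halving bound Bocillin-FL.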

N. gonorrhoeae WHO L = assay: Liquid broth MIC in Fastidious broth; conditions: Neisseria gonorrhoeae, read-out: Minimum Inhibitory Concentration (MIC), N. gonorrhoeae WHO L
[2] = biological target: T2, PBP2 from Neisseria gonorrhoeae (FA19) (Neisseria gonorrhoeae, UniProt P08149); assay: Bocillin-FL fluorescence polarization competition binding, N. gonorrhoeae PBP2; conditions: fluorescence polarization competition binding assay using Bocillin-FL, read-out: N. gonorrhoeae PBP2 Potency
T2 construct: made in house
T2 sequence (P08149 whole entry): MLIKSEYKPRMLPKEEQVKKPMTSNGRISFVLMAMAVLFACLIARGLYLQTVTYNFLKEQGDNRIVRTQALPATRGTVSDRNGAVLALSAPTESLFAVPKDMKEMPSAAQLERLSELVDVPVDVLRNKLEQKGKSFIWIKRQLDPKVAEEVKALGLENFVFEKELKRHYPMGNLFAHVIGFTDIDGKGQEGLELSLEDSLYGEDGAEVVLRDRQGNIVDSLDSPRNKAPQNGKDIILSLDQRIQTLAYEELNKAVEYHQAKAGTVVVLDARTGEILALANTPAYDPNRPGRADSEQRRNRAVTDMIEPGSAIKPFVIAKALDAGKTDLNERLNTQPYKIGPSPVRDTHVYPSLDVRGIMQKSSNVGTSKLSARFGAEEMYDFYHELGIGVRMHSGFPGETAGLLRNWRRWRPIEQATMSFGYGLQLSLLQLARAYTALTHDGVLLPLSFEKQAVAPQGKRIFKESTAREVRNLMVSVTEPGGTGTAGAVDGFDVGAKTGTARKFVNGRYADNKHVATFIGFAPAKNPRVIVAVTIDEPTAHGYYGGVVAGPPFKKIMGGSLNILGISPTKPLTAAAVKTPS
Description: To determine the ability of boronic acid-based test PBP inhibitors to bind Penicillin Binding Proteins (PBPs), Bocillin-FL (fluorescently-labeled penicillin V; ThermoFisher Scientific) was used in a fluorescence polarization (FP) competition binding assay to assess inhibitor binding to PBP3 from Escherichia coli (K-12), PBP3 from Pseudomonas aeruginosa (PAO1), PBP1a and PBP3 from Acinetobacter baumannii (ATCC 19606), and PBP2 from Neisseria gonorrhoeae (FA19). PBPs were cloned and purified as described previously (E. coli PBP3, King, D. T, et al., ACS Infectious Diseases 2015, 1, 175-184; P. aeruginosa PBP3, Han et. al., PNAS 2010, 107 (51), 22002-22007; A. baumannii PBPs, Penwell et. al., Antimicrob. Agents Chemother. 2015, 59 (3), 1680-1689; N. gonorrhoeae PBP2, Singh et. al., J. Biol. Chem. 2019, 294 (38), 14020-14032). To establish assay conditions for competition binding, enzyme titration/saturation binding experiments were initially performed. Bocillin-FL was prepared at 0.2 μM in a buffer comprised of 50 mM Hepes (pH 8.0), 300 mM NaCl and 10% (v/v) glycerol for reactions with E. coli, P. aeruginosa and N. gonorrhoeae PBPs, and 25 mM Tris (pH 8.0), 200 mM NaCl, 10% (v/v) glycerol and 0.005% (v/v) Tween 20 for reactions with A. baumannii PBPs. Saturation binding was performed by mixing 40 μl of PBP solutions ranging in concentrations from 0-24 μM with 40 μl of the 0.2 μM Bocillin-FL solution, in individual wells of a black 384-well microplate. FP was measured immediately upon mixing (Excitation, 490 nm; Emission, 520 nm; g-factor, 0.96), using a Cytation3 (BioTek) microplate reader and measured continuously for up to 120 minutes. […] The competition binding assay (80 μl final volume) was validated using beta-lactams and PBPs at final concentrations of: 1.5 μM for E. coli PBP3; 0.75 μM for P. aeruginosa PBP3; 1 μM for A. baumannii PBP1a; 0.2 μM for A. baumannii PBP3; and 0.25 μM for N. gonorrhoeae PBP2. Bocillin-FL was at 0.1 μM (0.05 μM with A. baumannii PBP1a) and beta-lactam concentrations ranged from 0-1,000 μM. E. coli PBP3 was incubated with increasing concentrations of ampicillin in a black 384-well microplate (Corning) for 30 minutes. P. aeruginosa PBP3 was incubated for 15 minutes with aztreonam, whereas A. baumannii PBP1a and PBP3 were incubated for 15 minutes with meropenem, and then Bocillin-FL was added followed immediately by the FP measurement for up to 60 minutes. […] The beta-lactam potency was reported as the concentration of beta-lactam required to reduce the amount of PBP bound-Bocillin-FL by 50% (EC50). […] Binding assays for boronic acid PBP inhibitors were performed in an identical fashion for the respective PBPs.

N. gonorrhoeae MS11 = assay: Liquid broth MIC in Fastidious broth; conditions: Neisseria gonorrhoeae, MS11, read-out: Minimum Inhibitory Concentration (MIC), N. gonorrhoeae MS11

T1 sequence (P0AD68 1-577): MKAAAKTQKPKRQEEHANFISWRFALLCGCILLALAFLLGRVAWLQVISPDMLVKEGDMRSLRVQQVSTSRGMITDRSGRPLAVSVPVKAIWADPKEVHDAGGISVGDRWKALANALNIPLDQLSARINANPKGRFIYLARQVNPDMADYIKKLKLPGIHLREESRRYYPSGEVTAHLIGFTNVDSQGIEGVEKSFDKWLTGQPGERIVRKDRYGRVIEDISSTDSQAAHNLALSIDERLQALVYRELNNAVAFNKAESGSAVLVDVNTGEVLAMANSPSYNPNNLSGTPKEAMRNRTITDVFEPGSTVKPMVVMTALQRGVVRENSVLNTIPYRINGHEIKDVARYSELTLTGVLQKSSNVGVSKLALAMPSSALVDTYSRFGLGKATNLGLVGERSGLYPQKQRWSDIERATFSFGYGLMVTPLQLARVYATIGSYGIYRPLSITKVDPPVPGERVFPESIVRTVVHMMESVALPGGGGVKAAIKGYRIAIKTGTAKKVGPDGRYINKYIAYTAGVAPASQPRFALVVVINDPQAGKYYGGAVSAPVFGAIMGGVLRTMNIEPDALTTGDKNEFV

SMILES | EC50 [1] [µM] | MIC (N. gonorrhoeae WHO L) [µg/mL] | EC50 [2] [µM] | MIC (N. gonorrhoeae MS11) [µg/mL]
Nc1nc(C(=O)N[C@@H](C(=O)N[C@H]2Cc3cccc(C(=O)O)c3OB2O)c2ccc(P(=O)(O)O)cc2)cs1 (racemic) [Example 51, (R)-3-((S)-2-(2-aminothiazole-4-carboxamido)-2-(4-phosphonophenyl)acetamido)-2-hydroxy-3,4-dihydro-2H-benzo[e][1,2]oxaborinine-8-carboxylic acid and (R)-3-((R)-2-(2-aminothiazole-4-carboxamido)-2-(4-phosphonophenyl)acetamido)-2-hydroxy-3,4-dihydro-2H-benzo[e][1,2]oxaborinine-8-carboxylic acid] | 10 to 50 | 4 to 8 (≈ 7.32 to 14.6 µM) | < 10 | < 1
CCN1CCN(C(=O)N[C@@H](C(=O)N[C@H]2Cc3cccc(C(=O)O)c3OB2O)c2ccc(P(=O)(O)O)c(F)c2)C(=O)C1=O (single isomer, unassigned) [Example 7] | < 10 | < 1 | < 10 | < 1
CCN1CCN(C(=O)N[C@@H](C(=O)N[C@H]2Cc3ccc(F)c(C(=O)O)c3OB2O)c2ccc(P(=O)(O)O)cc2)C(=O)C1=O (single isomer, unassigned) [Example 10] | < 10 | < 1 | < 10 | < 1
CS(=O)(=O)N1CCN(C(=O)N[C@@H](C(=O)N[C@H]2Cc3cccc(C(=O)O)c3OB2O)c2ccc(P(=O)(O)O)c(F)c2F)C1=O (single isomer, unassigned) [Example 13] | < 10 | < 1 | < 10 | < 1
CS(=O)(=O)N1CCN(C(=O)N[C@@H](C(=O)N[C@H]2Cc3cccc(C(=O)O)c3OB2O)c2ccc(P(=O)(O)O)c(F)c2)C1=O (single isomer, unassigned) [Example 15] | < 10 | < 1 | < 10 | < 1
CS(=O)(=O)N1CCN(C(=O)N[C@@H](C(=O)N[C@H]2Cc3cccc(C(=O)O)c3OB2O)c2cc(F)c(P(=O)(O)O)c(F)c2)C1=O (single isomer, unassigned) [Example 18] | < 10 | < 1 | < 10 | < 1
CS(=O)(=O)N1CCN(C(=O)N[C@@H](C(=O)N[C@H]2Cc3ccc(F)c(C(=O)O)c3OB2O)c2ccc(P(=O)(O)O)c(F)c2)C1=O (single isomer, unassigned) [Example 19] | < 10 | < 1 | < 10 | < 1
CCN1CCN(C(=O)N[C@@H](C(=O)N[C@H]2Cc3cccc(C(=O)O)c3OB2O)c2ccc(P(C)(=O)O)cc2)C(=O)C1=O (single isomer, unassigned) [Example 47] | < 10 | 4 to 8 (≈ 6.82 to 13.6 µM) | < 10 | < 1
N[C@@H](C(=O)N[C@H]1Cc2cccc(C(=O)O)c2OB1O)c1ccc(P(=O)(O)O)cc1 (single isomer, unassigned) [Example 171] | > 250 | > 64 | 10 to 50 | > 64
O=C(O)c1cccc2c1OB(O)[C@@H](NC(=O)[C@@H](NC(=O)c1ccn[nH]c1=O)c1ccc(P(=O)(O)O)cc1)C2 (single isomer, unassigned) [Example 177] | 10 to 50 | 4 to 8 (≈ 7.38 to 14.8 µM) | < 10 | 1 to 2 (≈ 1.84 to 3.69 µM)
O=C(O)c1cccc2c1OB(O)[C@@H](NC(=O)[C@H](NC(=O)c1ccn[nH]c1=O)c1ccc(P(=O)(O)O)cc1)C2 (single isomer, unassigned) [Example 178] | < 10 | 1 to 2 (≈ 1.84 to 3.69 µM) | < 10 | < 1
Cn1cccc(C(=O)N[C@@H](C(=O)N[C@H]2Cc3cccc(C(=O)O)c3OB2O)c2ccc(P(=O)(O)O)cc2)c1=O (single isomer, unassigned) [Example 182] | < 10 | 16 to 32 (≈ 28.8 to 57.6 µM) | < 10 | 1 to 2 (≈ 1.8 to 3.6 µM)
O=C(N[C@H](C(=O)N[C@H]1Cc2cccc(C(=O)O)c2OB1O)c1ccc(P(=O)(O)O)cc1)c1ccc(C(F)(F)F)cn1 (single isomer, unassigned) [Example 192] | 10 to 50 | 4 to 8 (≈ 6.74 to 13.5 µM) | < 10 | 1 to 2 (≈ 1.69 to 3.37 µM)
O=C(N[C@@H](C(=O)N[C@H]1Cc2cccc(C(=O)O)c2OB1O)c1ccc(P(=O)(O)O)cc1)c1ccc(C(F)(F)F)cn1 (single isomer, unassigned) [Example 193] | < 10 | 4 to 8 (≈ 6.74 to 13.5 µM) | < 10 | < 1
CN1CCC[C@H]1C(=O)NC(C(=O)N[C@H]1Cc2cccc(C(=O)O)c2OB1O)c1ccc(P(=O)(O)O)cc1 (some centres unmarked) [Example 66] | 50 to 250 | 16 to 32 (≈ 30.1 to 60.2 µM) | – | 16 to 32 (≈ 30.1 to 60.2 µM)
O=C(O)c1cccc2c1OB(O)[C@@H](NC(=O)C(NC(=O)C(F)(F)F)c1ccc(P(=O)(O)O)cc1)C2 (stereo partly drawn) [Example 172, (3R)-2-hydroxy-3-(2-(4-phosphonophenyl)-2-(2,2,2-trifluoroacetamido)acetamido)-3,4-dihydro-2H-benzo[e][1,2]oxaborinine-8-carboxylic acid] | > 250 | 16 to 32 (≈ 31 to 62 µM) | – | 16 to 32 (≈ 31 to 62 µM)
O=C(O)c1cccc2c1OB(O)[C@@H](NC(=O)[C@H](NC(=O)[C@@H]1CCCN1)c1ccc(P(=O)(O)O)cc1)C2 [Example 173, (R)-2-hydroxy-3-((R)-2-(4-phosphonophenyl)-2-((S)-pyrrolidine-2-carboxamido)acetamido)-3,4-dihydro-2H-benzo[e][1,2]oxaborinine-8-carboxylic acid] | 50 to 250 | 16 to 32 (≈ 30.9 to 61.9 µM) | – | 16 to 32 (≈ 30.9 to 61.9 µM)
O=C(O)c1cccc2c1OB(O)[C@@H](NC(=O)C(NC(=O)c1ccc[nH]c1=O)c1ccc(P(=O)(O)O)cc1)C2 (stereo partly drawn) [Example 174, (3R)-2-hydroxy-3-(2-(2-oxo-1,2-dihydropyridine-3-carboxamido)-2-(4-phosphonophenyl)acetamido)-3,4-dihydro-2H-benzo[e][1,2]oxaborinine-8-carboxylic acid] | 50 to 250 | 16 to 32 (≈ 29.6 to 59.1 µM) | – | 4 to 8 (≈ 7.39 to 14.8 µM)
O=C(O)c1cccc2c1OB(O)[C@@H](NC(=O)[C@H](NC(=O)c1c[nH]ccc1=O)c1ccc(P(=O)(O)O)cc1)C2 [Example 175, (R)-2-hydroxy-3-((R)-2-(4-oxo-1,4-dihydropyridine-3-carboxamido)-2-(4-phosphonophenyl)acetamido)-3,4-dihydro-2H-benzo[e][1,2]oxaborinine-8-carboxylic acid] | < 10 | 16 to 32 (≈ 29.6 to 59.1 µM) | – | 1 to 2 (≈ 1.85 to 3.7 µM)
O=C(O)c1cccc2c1OB(O)[C@@H](NC(=O)C(NC(=O)c1cnc[nH]c1=O)c1ccc(P(=O)(O)O)cc1)C2 (stereo partly drawn) [Example 176, (3R)-2-hydroxy-3-(2-(6-oxo-1,6-dihydropyrimidine-5-carboxamido)-2-(4-phosphonophenyl)acetamido)-3,4-dihydro-2H-benzo[e][1,2]oxaborinine-8-carboxylic acid] | 50 to 250 | 16 to 32 (≈ 29.5 to 59 µM) | – | 4 to 8 (≈ 7.38 to 14.8 µM)
N#Cc1ccnc(C(=O)NC(C(=O)N[C@H]2Cc3cccc(C(=O)O)c3OB2O)c2ccc(P(=O)(O)O)cc2)c1 (stereo partly drawn) [Example 179, (3R)-3-(2-(4-cyanopicolinamido)-2-(4-phosphonophenyl)acetamido)-2-hydroxy-3,4-dihydro-2H-benzo[e][1,2]oxaborinine-8-carboxylic acid] | 50 to 250 | 16 to 32 (≈ 29.1 to 58.2 µM) | – | 16 to 32 (≈ 29.1 to 58.2 µM)
